Reference: the supplement of paper PMC10307832

How the values were obtained:
Experiment in all cases: relative viability (nuclei count vs DMSO), 5 days (fraction); higher = more cells survive
HCC-44 = test system: HCC-44
Procedure, shortened: (§1)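 Lung cancer cell lines were pin-tool dosed in 1536-well plates on the day after seeding, with either a lone drug or a fixed anchor-drug dose plus five library-drug doses (not always all listed) in √10 steps. Nuclei were counted on 4× images after 5 days. Relative viability is the ratio of treated-well to vehicle-well nuclei counts, with each value a median of duplicate plates.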

PC-14 = test system: PC-14
Procedure, shortened: as §1

LC-2-ad = test system: LC-2-ad
Procedure, shortened: as §1

LCLC-97TM1 = test system: LCLC-97TM1
Procedure, shortened: as §1

NCI-H23 = test system: NCI-H23
Procedure, shortened: as §1

LCLC-103H = test system: LCLC-103H
Procedure, shortened: as §1

201T = test system: 201T
Procedure, shortened: as §1

NCI-H2228 = test system: NCI-H2228
Procedure, shortened: as §1

LU99A = test system: LU99A
Procedure, shortened: as §1

COR-L23 = test system: COR-L23
Procedure, shortened: as §1

NCI-H1650 = test system: NCI-H1650
Procedure, shortened: as §1

PC-3 [JPC-3] = test system: PC-3 [JPC-3]
Procedure, shortened: as §1

NCI-H596 = test system: NCI-H596
Procedure, shortened: as §1

SW 1573 = test system: SW 1573
Procedure, shortened: as §1

NCI-H1793 = test system: NCI-H1793
Procedure, shortened: as §1

SW 900 = test system: SW 900
Procedure, shortened: as §1

NCI-H460 = test system: NCI-H460
Procedure, shortened: as §1

H3255 = test system: H3255
Procedure, shortened: as §1

LK-2 = test system: LK-2
Procedure, shortened: as §1

A-427 = test system: A-427
Procedure, shortened: as §1

NCI-H2347 = test system: NCI-H2347
Procedure, shortened: as §1

NCI-H727 = test system: NCI-H727
Procedure, shortened: as §1

Work on `O=c1cc(N2CCOCC2)oc2c(-c3cccc4c3sc3ccccc34)cccc12` + Cc1cc(Nc2cc(N3CCN(C)CC3)nc(Sc3ccc(NC(=O)C4CC4)cc3)n2)n[nH]1 [Tozasertib] (partner 0.1 µM) yielded a relative viability (HCC-44; first compound 0.01 µM) of 0.846, a relative viability (HCC-44; first compound 0.03162 µM) of 1.05 and a relative viability (HCC-44; first compound 0.1 µM) of 1.12. For the same molecule, the relative viability (HCC-44; first compound 0.3162 µM) was 0.876, the relative viability (HCC-44; first compound 1 µM) was 0.91 and the relative viability (PC-14; first compound 0.01 µM) was 0.567. The relative viability (PC-14; first compound 0.03162 µM) was 0.572, the relative viability (PC-14; first compound 0.1 µM) was 0.575 and the relative viability (PC-14; first compound 0.3162 µM) was 0.535. It also gave a relative viability (PC-14; first compound 1 µM) of 0.577, a relative viability (LC-2-ad; first compound 0.01 µM) of 0.486 and a relative viability (LC-2-ad; first compound 0.03162 µM) of 0.46. It also gave a relative viability (LC-2-ad; first compound 0.1 µM) of 0.478, a relative viability (LC-2-ad; first compound 0.3162 µM) of 0.443 and a relative viability (LC-2-ad; first compound 1 µM) of 0.445. For the same molecule, the relative viability (LCLC-97TM1; first compound 0.01 µM) was 0.262, the relative viability (LCLC-97TM1; first compound 0.03162 µM) was 0.246 and the relative viability (LCLC-97TM1; first compound 0.1 µM) was 0.28. For the same molecule, the relative viability (LCLC-97TM1; first compound 0.3162 µM) was 0.214, the relative viability (LCLC-97TM1; first compound 1 µM) was 0.219 and the relative viability (NCI-H23; first compound 0.01 µM) was 0.363. For the same molecule, the relative viability (NCI-H23; first compound 0.03162 µM) was 0.391, the relative viability (NCI-H23; first compound 0.3162 µM) was 0.31 and the relative viability (NCI-H23; first compound 1 µM) was 0.351. The relative viability (LCLC-103H; first compound 0.01 µM) was 0.425, the relative viability (LCLC-103H; first compound 0.03162 µM) was 0.538 and the relative viability (LCLC-103H; first compound 0.1 µM) was 0.485. For the same molecule, the relative viability (LCLC-103H; first compound 0.3162 µM) was 0.504, the relative viability (LCLC-103H; first compound 1 µM) was 0.457 and the relative viability (201T; first compound 0.01 µM) was 0.93. The relative viability (201T; first compound 0.03162 µM) was 0.916, the relative viability (201T; first compound 0.1 µM) was 0.983 and the relative viability (201T; first compound 0.3162 µM) was 0.883. It also gave a relative viability (201T; first compound 1 µM) of 0.881, a relative viability (NCI-H2228; first compound 0.01 µM) of 0.331 and a relative viability (NCI-H2228; first compound 0.03162 µM) of 0.267. The relative viability (NCI-H2228; first compound 0.1 µM) was 0.217, the relative viability (NCI-H2228; first compound 0.3162 µM) was 0.224 and the relative viability (NCI-H2228; first compound 1 µM) was 0.228. It also gave a relative viability (LU99A; first compound 0.01 µM) of 0.262, a relative viability (LU99A; first compound 0.03162 µM) of 0.279 and a relative viability (LU99A; first compound 0.1 µM) of 0.273. It also gave a relative viability (LU99A; first compound 0.3162 µM) of 0.303, a relative viability (LU99A; first compound 1 µM) of 0.267 and a relative viability (COR-L23; first compound 0.01 µM) of 0.213. It also gave a relative viability (COR-L23; first compound 0.03162 µM) of 0.231, a relative viability (COR-L23; first compound 0.1 µM) of 0.18 and a relative viability (COR-L23; first compound 0.3162 µM) of 0.234. It also gave a relative viability (COR-L23; first compound 1 µM) of 0.225, a relative viability (NCI-H1650; first compound 0.01 µM) of 0.383 and a relative viability (NCI-H1650; first compound 0.03162 µM) of 0.416. For the same molecule, the relative viability (NCI-H1650; first compound 0.1 µM) was 0.392, the relative viability (NCI-H1650; first compound 0.3162 µM) was 0.373 and the relative viability (NCI-H1650; first compound 1 µM) was 0.352. For the same molecule, the relative viability (PC-3 [JPC-3]; first compound 0.01 µM) was 0.855, the relative viability (PC-3 [JPC-3]; first compound 0.03162 µM) was 0.884 and the relative viability (PC-3 [JPC-3]; first compound 0.1 µM) was 0.879. It also gave a relative viability (PC-3 [JPC-3]; first compound 0.3162 µM) of 0.842, a relative viability (PC-3 [JPC-3]; first compound 1 µM) of 0.852 and a relative viability (NCI-H596; first compound 0.01 µM) of 0.834. It also gave a relative viability (NCI-H596; first compound 0.03162 µM) of 0.939, a relative viability (NCI-H596; first compound 0.1 µM) of 0.921 and a relative viability (NCI-H596; first compound 0.3162 µM) of 0.865. It also gave a relative viability (NCI-H596; first compound 1 µM) of 1.03, a relative viability (SW 1573; first compound 0.01 µM) of 0.198 and a relative viability (SW 1573; first compound 0.03162 µM) of 0.159. The relative viability (SW 1573; first compound 0.1 µM) was 0.164, the relative viability (SW 1573; first compound 0.3162 µM) was 0.157 and the relative viability (SW 1573; first compound 1 µM) was 0.166. It also gave a relative viability (NCI-H1793; first compound 0.01 µM) of 0.352, a relative viability (NCI-H1793; first compound 0.1 µM) of 0.324 and a relative viability (NCI-H1793; first compound 0.3162 µM) of 0.312. The relative viability (NCI-H1793; first compound 1 µM) was 0.276, the relative viability (SW 900; first compound 0.01 µM) was 0.505 and the relative viability (SW 900; first compound 0.03162 µM) was 0.651. For the same molecule, the relative viability (SW 900; first compound 0.1 µM) was 0.656, the relative viability (SW 900; first compound 0.3162 µM) was 0.574 and the relative viability (SW 900; first compound 1 µM) was 0.548. It also gave a relative viability (NCI-H460; first compound 0.01 µM) of 0.342, a relative viability (NCI-H460; first compound 0.03162 µM) of 0.479 and a relative viability (NCI-H460; first compound 0.1 µM) of 0.511. It also gave a relative viability (NCI-H460; first compound 0.3162 µM) of 0.417, a relative viability (NCI-H460; first compound 1 µM) of 0.465 and a relative viability (H3255; first compound 0.01 µM) of 0.789. The relative viability (H3255; first compound 0.03162 µM) was 0.484, the relative viability (H3255; first compound 0.1 µM) was 0.709 and the relative viability (H3255; first compound 0.3162 µM) was 0.593. The relative viability (H3255; first compound 1 µM) was 0.606, the relative viability (LK-2; first compound 0.01 µM) was 0.164 and the relative viability (LK-2; first compound 0.03162 µM) was 0.161. It also gave a relative viability (LK-2; first compound 0.1 µM) of 0.17, a relative viability (LK-2; first compound 0.3162 µM) of 0.166 and a relative viability (LK-2; first compound 1 µM) of 0.17. For the same molecule, the relative viability (A-427; first compound 0.01 µM) was 0.232, the relative viability (A-427; first compound 0.03162 µM) was 0.201 and the relative viability (A-427; first compound 0.1 µM) was 0.212. For the same molecule, the relative viability (A-427; first compound 0.3162 µM) was 0.223, the relative viability (A-427; first compound 1 µM) was 0.212 and the relative viability (NCI-H2347; first compound 0.01 µM) was 0.618. For the same molecule, the relative viability (NCI-H2347; first compound 0.03162 µM) was 0.599, the relative viability (NCI-H2347; first compound 0.1 µM) was 0.538 and the relative viability (NCI-H2347; first compound 0.3162 µM) was 0.526. For the same molecule, the relative viability (NCI-H2347; first compound 1 µM) was 0.549, the relative viability (NCI-H727; first compound 0.01 µM) was 0.607 and the relative viability (NCI-H727; first compound 0.03162 µM) was 0.644. For the same molecule, the relative viability (NCI-H727; first compound 0.1 µM) was 0.673, the relative viability (NCI-H727; first compound 0.3162 µM) was 0.632 and the relative viability (NCI-H727; first compound 1 µM) was 0.673.
